Experimental findings from ChEMBL document CHEMBL1255212, “Synthesis and antiviral evaluation of α-D-2',3'-didehydro-2',3'-dideoxy-3'-C-hydroxymethyl nucleosides” (Bioorg Med Chem Lett, 2010) are described below.

Broadly, the EC50 is the midpoint of the concentration-response curve. Low values mean an effect from little substance, high ones a need for much substance.

Values after ≈ are worked out from the molar mass of the structure shown. Active and inactive are the calls of the source. The rule behind the calls is not given here.

Common to all, as to format: functional, organism-based
In one test the test system is Human betaherpesvirus 5. Kind of test: Antiviral activity against HCMV.
The test system of another test is Human alphaherpesvirus 1. Kind of test: Antiviral activity against HSV1.
The subject of a further test is Human alphaherpesvirus 2. Kind of test: Antiviral activity against HSV2.
Test [1] concerns Human immunodeficiency virus 1. Kind of test: Antiviral activity against HIV1.

With `Cc1cn([C@@H]2C=C(CO)[C@@H](CO)O2)c(=O)[nH]c1=O`, the result (in the test with Human betaherpesvirus 5; with Human alphaherpesvirus 2; in test [1]) was inactive. In addition, in the test with Human alphaherpesvirus 1, the response was half-maximal at 33 mg/L (≈ 130 µM) (EC50).
In the case of `NC1C=CN([C@@H]2C=C(CO)[C@@H](CO)O2)C(=O)N1` (some centres not stated), the result (in the test with Human betaherpesvirus 5; with Human alphaherpesvirus 1; in the test on Human alphaherpesvirus 2; in test [1]) was inactive.
Consider `Nc1ncnc2c1ncn2[C@@H]1C=C(CO)[C@@H](CO)O1`, for which the result (with Human betaherpesvirus 5; in the test on Human alphaherpesvirus 1; in the test with Human alphaherpesvirus 2; in test [1]) was inactive.
